Source: patent US20130203805A1, “Methods for treating anemia using inhibitors of hypoxia-inducible factor (HIF) hydroxylase” (FIBROGEN, INC., priority 2001, published 2013)

How the values were obtained:
[1] = system: erythropoietin; assay: Dose response in vivo: serum erythropoietin (Example 3); set-up: species or system Sprague Dawley male rats; details: rats; oral gavage 350 mg/kg on two days or 100 mg/kg daily days 1 to 7; within 1 day of treatment; FIG. 4A
Method: Twelve Sprague Dawley male rats (approx. 260 g) were obtained from Charles River Laboratories, Inc., and treated by oral gavage as follows: (1) Four rats were dosed daily for days 1 to 7 with 0.5% carboxymethyl cellulose (CMC; Sigma-Aldrich, St. Louis Mo.) (0 mg/kg), were not treated for days 8 to 14, and then were dosed daily for days 15 to 19 with 0.5% CMC (0 mg/kg); (2) four animals were treated on day 0 and day 3 with a total of 7 ml/kg/day of 5.0% compound C (50 mg/ml in 0.5% CMC) (350 mg/kg), were not treated days 8 to 14, and then were dosed daily for days 15 to 19 with 3% compound C: (30 mg/ml in 0.5% CMC) (60 mg/kg/day); and (3) four animals were treated daily for days 1 to 7 with a total volume of 4 ml/kg/day of 2.5% compound C (25 mg/ml in 0.5% CMC) (100 mg/kg), were not treated days 8 to 14, and then were dosed daily for days 15 to 19 with 3% compound C (60 mg/kg/day). Thus, groups (2) and (3) received a total of 700 mg compound/kg body weight over the first 7 days, no treatment from days 8 to 14, and then 60 mg/kg/day for another 5 days. Animals were monitored for change in body weight and signs of toxicity. Blood samples (2×0.5 ml) were collected on days 1, 3, 7, 10, 17 and 21 as follows. Animals were anesthetized with isoflurane and 0.5 ml of blood was collected from the tail vein of each animal into each of two MICROTAINER EDTA-2K tubes (Becton-Dickinson). […]

[2] = system: erythropoietin transcript; assay: Erythropoietin transcript in tissues by Murine genome U74AV2 array (Example 7); format: in vivo, male Swiss Webster mice; details: mice
Method: Twenty-five male Swiss Webster mice (35-38 g) were obtained from Simonson, Inc., and treated by oral gavage […] for 2.5 days (5 doses) with a 4 ml/kg volume of either 0.5% carboxymethyl cellulose (CMC; Sigma-Aldrich, St. Louis Mo.) (0 mg/kg/day), compound C at 30 or 100 mg/kg/day […], or blood was collected daily from animals as described above to induce anemia. Blood samples were collected and kidney, liver, brain, lung, heart, and skeletal muscle tissues were harvested and processed as for Example 2, Experiment I (supra).
RNA isolation was carried out using the following protocol. A 50 mg section of each organ was diced, 875 μl of RLT buffer (RNEASY kit; Qiagen Inc., Valencia Calif.) was added, and the pieces were homogenized for about 20 seconds using a rotor-stator POLYTRON homogenizer (Kinernatica, Inc., Cincinnati Ohio). The homogenate was micro-centrifuged for 3 minutes to pellet insoluble material, the supernatant was transferred to a new tube and RNA was isolated using an RNEASY kit (Qiagen) according to the manufacturer's instructions. The RNA was eluted into 80 μL of water and quantitated with RIBOGREEN reagent (Molecular Probes, Eugene Oreg.). Genomic DNA was then removed from the RNA using a DNA-FREE kit (Ambion Inc, Austin Tex.) according to the manufacturer's instructions. The absorbance at 260 and 280 nm was measured to determine RNA purity and concentration.
RNA was precipitated in 0.3 M sodium acetate (pH 5.2), 50 ng/ml glycogen, and 2.5 volumes of ethanol for one hour at −20° C. Samples were centrifuged and pellets were washed with cold 80% ethanol, dried, and resuspend in water. Double stranded cDNA was synthesized using a T7-(dT)24 first strand primer (Affymetrix, Inc., Santa. Clara Calif.) and the […] CHOICE system (Invitrogen) according to the manufacturer's instructions. The final cDNA was extracted with an equal volume of 25:24:1 phenol:chloroform:isoamyl alcohol using a PHASE LOCK GEL insert (Brinkman, Inc., Westbury N.Y.). The aqueous phase was collected and cDNA was precipitated using 0.5 volumes of 7.5 M ammonium acetate and 2.5 volumes of ethanol. Alternatively, cDNA was purified using the […] sample cleanup module (Affymetrix) according to the manufacturer's instructions. […]
Hybridization cocktail was prepared by bringing 5 μg probe to 100 μl in 1× hybridization buffer (100 mM MES, 1 M [Na^+], 20 mM EDTA, 0.01% Tween 20), 100 μg/ml herring sperm DNA, 500 μg/ml acetylated BSA, 0.03 nM control oligo B2 (Affymetrix), and 1× […] eukaryotic hybridization control (Affymetrix). […] Arrays were analyzed using a […] scanner (Affymetrix) and Microarray Suite software (Affymetrix). […]

[3] = 30 or 100 mg/kg/day oral gavage for 4 days, FIG. 6

For `O=C(O)CNC(=O)c1nc(Cl)c2ccccc2c1O` [Compound C, [(1-chloro-4-hydroxy-isoquinoline-3-carbonyl)-amino]-acetic acid], the serum erythropoietin level [1] was “significantly increased”, the “erythropoietin transcript, brain” value [2, 3] was “dose-dependent increase” and the “erythropoietin transcript, kidney” value [2, 3] was “dose-dependent increase”. For the same compound, the “erythropoietin transcript, liver” value [2, 3] was “dose-dependent increase” and the “level of expression versus transcription seen with bleed-induced anemia in the same tissue” value ([2]; brain, kidney, liver, 30 or 100 mg/kg/day oral gavage) was “equivalent to or exceeded”.
